Data as given in patent publication US8192962B2, “Processes for detecting toxic substances” (Daikin Industries, Ltd., priority 2001, dated 2012).

Test system: Genes belonging to other category
Test: DNA chip mRNA expression in yeast, genes belonging to other category (Table 9)
Format: cell-based, Saccharomyces cerevisiae S288C
How it was run: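 Measured as treated-to-untreated fluorescence ratio on a full-genome yeast DNA chip. Cells (S288C, YPD, 25° C.) were exposed in log phase for two hours to one chemical, dosed to curb growth without killing.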

SMILES: C=CC=O [(14), acrolein]
- The level of expressed mRNA in the presence of chemical substance/The level of expressed mRNA in the absence of chemical substance (yeast gene YAL055W): 1.6
- The level of expressed mRNA in the presence of chemical substance/The level of expressed mRNA in the absence of chemical substance (yeast gene YAR009C): 1.0
- The level of expressed mRNA in the presence of chemical substance/The level of expressed mRNA in the absence of chemical substance (yeast gene YAR010C): 1.0
- The level of expressed mRNA in the presence of chemical substance/The level of expressed mRNA in the absence of chemical substance (yeast gene YAR062W): 1.1
- The level of expressed mRNA in the presence of chemical substance/The level of expressed mRNA in the absence of chemical substance (yeast gene YBL005W-A): 1.4
- The level of expressed mRNA in the presence of chemical substance/The level of expressed mRNA in the absence of chemical substance (yeast gene YBL041W): 2.0
- The level of expressed mRNA in the presence of chemical substance/The level of expressed mRNA in the absence of chemical substance (yeast gene YBL043W): 1.9
- The level of expressed mRNA in the presence of chemical substance/The level of expressed mRNA in the absence of chemical substance (yeast gene YBL078C): 3.6
- The level of expressed mRNA in the presence of chemical substance/The level of expressed mRNA in the absence of chemical substance (yeast gene YBL101W-A): 1.5
- The level of expressed mRNA in the presence of chemical substance/The level of expressed mRNA in the absence of chemical substance (yeast gene YBL102W): 1.1
- The level of expressed mRNA in the presence of chemical substance/The level of expressed mRNA in the absence of chemical substance (yeast gene YBR010W): 1.0
- The level of expressed mRNA in the presence of chemical substance/The level of expressed mRNA in the absence of chemical substance (yeast gene YBR026C): 1.5
- The level of expressed mRNA in the presence of chemical substance/The level of expressed mRNA in the absence of chemical substance (yeast gene YBR139W): 1.1
- The level of expressed mRNA in the presence of chemical substance/The level of expressed mRNA in the absence of chemical substance (yeast gene YBR170C): 1.3
- The level of expressed mRNA in the presence of chemical substance/The level of expressed mRNA in the absence of chemical substance (yeast gene YBR173C): 3.0
- The level of expressed mRNA in the presence of chemical substance/The level of expressed mRNA in the absence of chemical substance (yeast gene YBR177C): 1.3
- The level of expressed mRNA in the presence of chemical substance/The level of expressed mRNA in the absence of chemical substance (yeast gene YBR214W): 0.9
- The level of expressed mRNA in the presence of chemical substance/The level of expressed mRNA in the absence of chemical substance (yeast gene YBR239C): 1.1
- The level of expressed mRNA in the presence of chemical substance/The level of expressed mRNA in the absence of chemical substance (yeast gene YBR286W): 1.5
- The level of expressed mRNA in the presence of chemical substance/The level of expressed mRNA in the absence of chemical substance (yeast gene YBR290W): 1.4
- The level of expressed mRNA in the presence of chemical substance/The level of expressed mRNA in the absence of chemical substance (yeast gene YCL020W): 1.7
- The level of expressed mRNA in the presence of chemical substance/The level of expressed mRNA in the absence of chemical substance (yeast gene YCL027W): 1.2
- The level of expressed mRNA in the presence of chemical substance/The level of expressed mRNA in the absence of chemical substance (yeast gene YCR004C): 3.7
- The level of expressed mRNA in the presence of chemical substance/The level of expressed mRNA in the absence of chemical substance (yeast gene YCR062W): 1.0
- The level of expressed mRNA in the presence of chemical substance/The level of expressed mRNA in the absence of chemical substance (yeast gene YCR069W): 1.0
- The level of expressed mRNA in the presence of chemical substance/The level of expressed mRNA in the absence of chemical substance (yeast gene YCR071C): 1.7
- The level of expressed mRNA in the presence of chemical substance/The level of expressed mRNA in the absence of chemical substance (yeast gene YCR088W): 0.9
- The level of expressed mRNA in the presence of chemical substance/The level of expressed mRNA in the absence of chemical substance (yeast gene YDL008W): 2.2
- The level of expressed mRNA in the presence of chemical substance/The level of expressed mRNA in the absence of chemical substance (yeast gene YDL018C): 1.5
- The level of expressed mRNA in the presence of chemical substance/The level of expressed mRNA in the absence of chemical substance (yeast gene YDL137W): 1.4
- The level of expressed mRNA in the presence of chemical substance/The level of expressed mRNA in the absence of chemical substance (yeast gene YDL238C): 1.2
- The level of expressed mRNA in the presence of chemical substance/The level of expressed mRNA in the absence of chemical substance (yeast gene YDR055W): 0.9
- The level of expressed mRNA in the presence of chemical substance/The level of expressed mRNA in the absence of chemical substance (yeast gene YDR084C): 1.0
- The level of expressed mRNA in the presence of chemical substance/The level of expressed mRNA in the absence of chemical substance (yeast gene YDR085C): 1.6
- The level of expressed mRNA in the presence of chemical substance/The level of expressed mRNA in the absence of chemical substance (yeast gene YDR104C): 1.4
- The level of expressed mRNA in the presence of chemical substance/The level of expressed mRNA in the absence of chemical substance (yeast gene YDR115W): 1.5
- The level of expressed mRNA in the presence of chemical substance/The level of expressed mRNA in the absence of chemical substance (yeast gene YDR125C): 1.0
- The level of expressed mRNA in the presence of chemical substance/The level of expressed mRNA in the absence of chemical substance (yeast gene YDR168W): 1.4
- The level of expressed mRNA in the presence of chemical substance/The level of expressed mRNA in the absence of chemical substance (yeast gene YDR259C): 1.5
- The level of expressed mRNA in the presence of chemical substance/The level of expressed mRNA in the absence of chemical substance (yeast gene YDR304C): 1.7
- The level of expressed mRNA in the presence of chemical substance/The level of expressed mRNA in the absence of chemical substance (yeast gene YDR315C): 1.4
- The level of expressed mRNA in the presence of chemical substance/The level of expressed mRNA in the absence of chemical substance (yeast gene YDR358W): 1.2
- The level of expressed mRNA in the presence of chemical substance/The level of expressed mRNA in the absence of chemical substance (yeast gene YDR373W): 2.1
- The level of expressed mRNA in the presence of chemical substance/The level of expressed mRNA in the absence of chemical substance (yeast gene YDR378C): 1.4
- The level of expressed mRNA in the presence of chemical substance/The level of expressed mRNA in the absence of chemical substance (yeast gene YDR388W): 0.6
- The level of expressed mRNA in the presence of chemical substance/The level of expressed mRNA in the absence of chemical substance (yeast gene YDR403W): 1.1
- The level of expressed mRNA in the presence of chemical substance/The level of expressed mRNA in the absence of chemical substance (yeast gene YDR427W): 1.0
